# Assay results published in patent publication US8455649B2, “Insecticidal substituted azinyl derivatives” (Dow AgroSciences, LLC, priority 2007, dated 2013).
# Read-outs that look alike come from different tables or passages of the source.
# What was measured:
# [1] = system: Corn Earworm (Helicoverpa zea); assay: Insecticidal diet-surface test for corn earworm; assay type: in vivo; settings: 120 h, read-out: HELIZE AVG % Mortality (50 μg/cm^2)
# Procedure: (§1) The compounds identified in Table 1 were tested against beet armyworm and corn earworm as follows:
# (§2) Insecticidal Test for Corn Earworm (Helicoverpa zea) and Beet Armyworm (Spodoptera exigua).
# (§3) To prepare test solution, the test compound was formulated at 2000 ppm solution as 4 mg/2 mL of 9 acetone:1 tap water. 50 μL of the 2000 ppm (equivalent to 50 μg/cm^2 dose on diet surface area) test solution was pipetted upon the surface of 1 mL of lepidopteran diet (Southland Multi-Species Lepidopteran Diet) contained in each of eight wells per insect species (one well=1 replication). A second-instar corn earworm and beet armyworm was placed upon the treated diet in each well once the solvent had air-dried. Trays containing the treated diet and larvae were covered and then held in a growth chamber at 25° C., 50-55% RH, and 16 hr light:8 hr dark for 5 days. Observation were conducted 5 days after treatment and infestation. The number of dead insects of 8 per species per treatment was then determined and the results are given in Table 2 as a percent control at a dose of […].
# [2] = system: Beet Armyworm (Spodoptera exigua); assay: Insecticidal diet-surface test for beet armyworm; assay type: in vivo; settings: 120 h, read-out: LAPHEG AVG % Mortality (50 μg/cm^2)
# Procedure: as §1, §2, §3
# [3] = second-instar larvae on treated diet, 50 μg/cm^2 on diet surface, 5 days after treatment, 8 insects per treatment
Compound,"mortality at 50 µg/cm2 [1, 3] [%]","mortality at 50 µg/cm2 [2, 3] [%]",mortality at 50 µg/cm2 [1] [%],mortality at 50 µg/cm2 [2] [%]
CCOCN(C(=O)Nc1nc(OCC(F)(F)F)cc(OCC(F)(F)F)n1)c1ccc(C(F)(F)F)nc1 [Compound 90],100,100,,
CN(C(=O)Nc1nc(OCC(F)(F)F)cc(OCC(F)(F)F)n1)c1ccc(Br)c(C(F)(F)F)c1 [Compound 181],100,100,,
CN(C(=O)N(C)c1nc(OCC(F)(F)F)cc(OCC(F)(F)F)n1)c1ccc(C(F)(F)F)cc1 [Compound 12],100,100,,
CN(C(=O)Nc1cc(OCC(F)(F)F)nc(OCC(F)(F)F)n1)c1ccc(Cl)nc1 [Compound 110],0,100,,
CN(C(=O)Nc1nc(OCC(F)(F)F)cc(OCC(F)(F)F)n1)c1ccc(C(F)(F)F)cn1 [Compound 122],88,100,,
CC(=O)OCN(C(=O)Nc1nc(OCC(F)(F)F)cc(OCC(F)(F)F)n1)c1ccc(C(F)(F)F)cc1 [Compound 38],100,100,,
O=C(Nc1ccc(C(F)(F)F)nc1)N(COCc1ccccc1)c1nc(OCC(F)(F)F)cc(OCC(F)(F)F)n1 [Compound 87],100,100,,
O=C(O)CN(C(=O)Nc1nc(OCC(F)(F)F)cc(OCC(F)(F)F)n1)c1ccc(OC(F)(F)F)cc1 [Compound 32],100,100,,
COCCOCN(C(=O)Nc1nc(OCC(F)(F)F)cc(OCC(F)(F)F)n1)c1ccc(C(F)(F)F)cc1 [Compound 62],100,100,,
"CN(C(=O)Nc1nc(OCC(F)(F)F)cc(OCC(F)(F)F)n1)c1ccc(Br)cc1 [Compound 41, N′-[4,6-bis(2,2,2-trifluoroethoxy)pyrimidin-2-yl]-N-methyl-N-(4-bromophenyl)urea]",100,100,,
O=C(Nc1ccc(OC(F)(F)F)cc1)Nc1cc(C(F)(F)F)cc(OCC(F)(F)F)n1 [Compound 163],100,100,,
CN(C(=O)Nc1cc(C(F)(F)F)cc(OCC(F)(F)F)n1)c1ccc(Br)cc1 [Compound 167],100,50,,
CN(C(=O)Nc1nc(OCC(F)(F)F)cc(OCC(F)(F)F)n1)c1ccc(C(F)(F)F)cc1 [Compound 31],100,100,,
COCN(C(=O)Nc1nc(OCC(F)(F)F)cc(OCC(F)(F)F)n1)c1ccc(OC(F)(F)F)cc1 [Compound 45],100,100,,
O=C(Nc1ccc(OC(F)(F)C(F)F)cc1)Nc1nc(OCC(F)(F)F)cc(OCC(F)(F)F)n1 [Compound 14],100,100,,
O=C(Nc1ccc(C(F)(F)F)cc1)Nc1nc(OCC(F)(F)C(F)(F)F)cc(OCC(F)(F)C(F)(F)F)n1 [Compound 174],100,0,,
O=C(Nc1ccc(C(F)(F)F)cc1)Nc1nc(Cl)cc(OCC(F)(F)F)n1 [Compound 97],100,100,,
CCOCN(C(=O)Nc1nc(OCC(F)(F)F)cc(OCC(F)(F)F)n1)c1ccc(OC(F)(F)F)cc1 [Compound 44],100,100,,
O=C(NNc1ccc(Cl)cc1)Nc1nc(OCC(F)(F)F)cc(OCC(F)(F)F)n1 [Compound 9],88,100,,
CN(C(=O)Nc1nc(OCC(F)(F)F)cc(OCC(F)(F)F)n1)c1ccc(Cl)cc1Cl [Compound 149],100,100,,
O=C(Nc1ccc(C(F)(F)F)cc1)Nc1nc(NCC(F)(F)F)cc(OCC(F)(F)F)n1 [Compound 99],100,100,,
N#Cc1ccc(NC(=O)Nc2nc(OCC(F)(F)F)cc(OCC(F)(F)F)n2)cc1 [Compound 4],100,0,,
CC(C)OCN(C(=O)N(COCc1ccccc1)c1nc(OCC(F)(F)F)cc(OCC(F)(F)F)n1)c1ccc(Br)cc1 [Compound 66],100,100,,
CN(C(=O)Nc1cc(OCC(F)(F)F)nc(OCC(F)(F)F)n1)c1ccc(OC(F)(F)F)cc1 [Compound 106],100,100,,
CCOC(=O)N(C(=O)Nc1nc(OCC(F)(F)F)cc(OCC(F)(F)F)n1)c1ccc(C(F)(F)F)cc1 [Compound 35],,100,100,

Compound,"mortality at 50 µg/cm2 [1, 3] [%]","mortality at 50 µg/cm2 [2, 3] [%]",mortality at 50 µg/cm2 [1] [%],mortality at 50 µg/cm2 [2] [%]
O=C(Nc1ccc(C(F)(F)F)cc1)Nc1nc(OCC(F)(F)F)cc(SCC(F)(F)F)n1 [Compound 6],63,0,,
CN(C(=O)Nc1nc(OCC(F)(F)F)cc(OCC(F)(F)F)n1)c1ccc(Cl)nc1 [Compound 48],100,100,,
O=C(Nc1ccc([N+](=O)[O-])cc1)Nc1nc(OCC(F)(F)F)cc(OCC(F)(F)F)n1 [Compound 56],100,0,,
O=C(Nc1ccc(Br)nc1)Nc1cc(C(F)(F)F)cc(OCC(F)(F)F)n1 [Compound 171],100,100,,
O=C(Nc1ccc(Cl)nc1)Nc1nc(OCC(F)(F)F)cc(OCC(F)(F)F)n1 [Compound 49],100,100,,
CN(C(=O)Nc1cc(OCC(F)(F)F)nc(OCC(F)(F)F)n1)c1ccc(Cl)cc1 [Compound 112],100,50,,
CC(Oc1ccc(NC(=O)Nc2nc(OCC(F)(F)F)cc(OCC(F)(F)F)n2)cc1)C(F)(F)F (stereo not shown) [Compound 17],0,100,,
CN(C(=O)Nc1cc(C(F)(F)F)cc(OCC(F)(F)F)n1)c1ccc(Br)nc1 [Compound 169],100,100,,
"CCOCN(C(=O)Nc1nc(OCC(F)(F)F)cc(OCC(F)(F)F)n1)c1ccc(C(F)(F)F)cc1 [Compound 34, N′-[4,6-Bis(2,2,2-trifluoroethoxy)pyrimidin-2-yl]-N-ethoxymethyl-N-(4-trifluoromethylphenyl)urea]",100,100,,
O=C(Nc1ccc(Br)cc1)N(COCc1ccccc1)c1nc(OCC(F)(F)F)cc(OCC(F)(F)F)n1 [Compound 63],100,100,,
CCOC(=O)N(C(=O)N(COCc1ccccc1)c1nc(OCC(F)(F)F)cc(OCC(F)(F)F)n1)c1ccc(C(F)(F)F)cc1 [Compound 36],,100,100,
CCOCN(C(=O)Nc1ccc(C(F)(F)F)cc1)c1nc(OCC(F)(F)F)cc(OCC(F)(F)F)n1 [Compound 18],100,100,,
"CN(C(=O)Nc1nc(OCC(F)(F)F)cc(OCC(F)(F)F)c1F)c1ccc(Br)cc1 [Compound 183, N′-[3-fluoro-4,6-bis(2,2,2-trifluoroethoxy)pyridin-2-yl]-N-methyl-N-(4-bromophenyl)urea]",50,100,,
O=C(Nc1ccc(C(F)(F)F)cc1)Nc1cc(C(F)(F)F)cc(OCC(F)(F)F)n1 [Compound 164],100,88,,
Cc1c(OCC(F)(F)F)nc(NC(=O)Nc2ccc(C(F)(F)F)nc2)nc1OCC(F)(F)F [Compound 143],100,100,,
CCCN(C(=O)Nc1nc(OCC(F)(F)F)cc(OCC(F)(F)F)n1)c1ccc(OC(F)(F)F)cc1 [Compound 26],100,100,,
CN(C(=O)Nc1nc(OCC(F)(F)F)cc(OCC(F)(F)F)n1)c1ccc(Br)c(Cl)c1 [Compound 84],100,100,,
N#Cc1ccc(NC(=O)Nc2nc(OCC(F)(F)F)cc(OCC(F)(F)F)n2)cc1Cl [Compound 55],,,100,0
COCCN(C(=O)Nc1nc(OCC(F)(F)F)cc(OCC(F)(F)F)n1)c1ccc(OC(F)(F)F)cc1 [Compound 50],100,100,,
CCNCCNc1cc(OCC(F)(F)F)nc(NC(=O)Nc2ccc(C(F)(F)F)cc2)n1 [Compound 98],100,100,,
O=C(Nc1ccc(C(F)(F)F)cc1)Nc1nc(OCC(F)(F)C(F)F)cc(OCC(F)(F)C(F)F)n1 [Compound 175],100,100,,
CC(=O)OCN(C(=O)Nc1ccc(C(F)(F)F)cc1)c1nc(OCC(F)(F)F)cc(OCC(F)(F)F)n1 [Compound 13],100,100,,
CN(C(=O)Nc1cc(C(F)(F)F)cc(OCC(F)(F)F)n1)c1ccc(C(F)(F)F)nc1 [Compound 170],100,75,,
CN(C(=O)Nc1nc(OCC(F)(F)F)cc(OCC(F)(F)F)n1)c1ccc(I)cc1 [Compound 81],100,100,,
CN(C(=O)Nc1cc(OCC(F)(F)F)nc(OCC(F)(F)F)n1)c1ccc(C(F)(F)F)nc1 [Compound 113],0,100,,
